The results in this text go back to patent US10323038B2, “Pyrazole compounds and methods of making and using same” (ABIDE THERAPEUTICS, INC., priority 2015, dated 2019).

Test [1] concerns the target MAGL (Mus musculus (Mouse), UniProt O35678). As to the kind of experiment: In vitro competitive activity-based protein profiling, MAGL (mouse). Format: biochemical. The following applies: for inhibition at 1 µM: read-out: MAGL % inh. 1 μM (mouse). The procedure, abridged:
(§1)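 Competitive ABPP; proteome 1.0 mg/mL total protein; mouse = brain membranes or cell lysates, human = prefrontal cortex or cell membranes. Inhibitor preinc 30 min, 37° C; FP-Rh/HT-01 (50 μM DMSO stock) 30 min, 37° C; SDS-PAGE, in-gel fluorescence of MAGL/FAAH bands.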

The target of test [2] is FAAH (Mus musculus (Mouse), UniProt O08914). Nature of the test: In vitro competitive activity-based protein profiling, FAAH (mouse). Format: biochemical. The following applies: for inhibition at 1 µM: read-out: FAAH % inh. 1 μM (mouse). A digest of the protocol: as §1

One may read the IC50 as the concentration that gives 50% inhibition. A low value points to higher potency.

Molecules are shown by their SMILES. Some results are limits rather than exact numbers.

MAGL, sequence (O35678 whole entry): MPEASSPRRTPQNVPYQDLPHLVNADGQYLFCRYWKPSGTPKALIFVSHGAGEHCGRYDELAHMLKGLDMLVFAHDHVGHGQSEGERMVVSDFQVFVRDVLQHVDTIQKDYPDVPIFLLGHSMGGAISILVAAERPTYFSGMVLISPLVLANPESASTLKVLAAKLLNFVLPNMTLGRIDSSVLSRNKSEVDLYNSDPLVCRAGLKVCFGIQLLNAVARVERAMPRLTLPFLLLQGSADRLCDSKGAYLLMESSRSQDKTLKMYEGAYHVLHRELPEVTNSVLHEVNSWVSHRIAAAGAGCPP
FAAH, sequence (O08914 whole entry): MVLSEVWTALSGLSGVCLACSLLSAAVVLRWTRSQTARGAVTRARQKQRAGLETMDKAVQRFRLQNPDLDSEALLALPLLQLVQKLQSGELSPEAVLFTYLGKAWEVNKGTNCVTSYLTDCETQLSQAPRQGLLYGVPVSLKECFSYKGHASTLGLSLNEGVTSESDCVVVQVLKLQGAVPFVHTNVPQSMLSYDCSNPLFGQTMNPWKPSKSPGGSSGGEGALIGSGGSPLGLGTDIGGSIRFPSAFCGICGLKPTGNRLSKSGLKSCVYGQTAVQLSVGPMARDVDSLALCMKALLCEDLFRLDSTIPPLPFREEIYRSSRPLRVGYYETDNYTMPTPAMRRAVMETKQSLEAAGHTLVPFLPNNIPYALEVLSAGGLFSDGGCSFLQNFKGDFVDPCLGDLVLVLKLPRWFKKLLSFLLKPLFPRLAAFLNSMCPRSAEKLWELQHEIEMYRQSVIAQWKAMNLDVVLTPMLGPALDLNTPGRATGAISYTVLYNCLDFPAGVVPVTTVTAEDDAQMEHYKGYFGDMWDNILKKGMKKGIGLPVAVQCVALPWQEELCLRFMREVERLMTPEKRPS

Consider `CC(=O)N(C)c1cnn(C(=O)N2CCN(Cc3ccc(C(F)(F)F)cc3N3CCCC3)CC2)c1` [Example 191, N-methyl-N-(1-(4-(2-(pyrrolidin-1-yl)-4-(trifluoromethyl)benzyl)piperazine-1-carbonyl)-1H-pyrazol-4-yl)acetamide], for which the IC50 was no more than 100 nM in test [1] and 100 to 1000 nM in test [2]. Further, the inhibition at 1 µM in test [1] is no less than 75%; in test [2], 25 to 50%.
As to `CC(=O)N(C)c1cnn(C(=O)N2CCN(Cc3ccccc3Cl)CC2)c1` [Example 192, N-(1-(4-(2-chlorobenzyl)piperazine-1-carbonyl)-1H-pyrazol-4-yl)-N-methylacetamide], in test [1], the IC50 is 100 to 1000 nM and the inhibition at 1 µM was no less than 75%. Moreover, in test [2], the IC50 lay within 100 to 1000 nM and the inhibition at 1 µM is no less than 75%.
As to `CC(=O)N(C)c1cnn(C(=O)N2CCN(Cc3cccc(Cl)c3)CC2)c1` [Example 193, N-(1-(4-(3-chlorobenzyl)piperazine-1-carbonyl)-1H-pyrazol-4-yl)-N-methylacetamide], in test [1], the IC50 lay in the range of 100 to 1000 nM and the inhibition at 1 µM is no less than 75%. Also, in test [2], the IC50 fell in the range of 100 to 1000 nM and the inhibition at 1 µM was no less than 75%.
Consider `CC(=O)N(C)c1cnn(C(=O)N2CCN(Cc3ccc(Cl)cc3)CC2)c1` [Example 194, N-(1-(4-(4-chlorobenzyl)piperazine-1-carbonyl)-1H-pyrazol-4-yl)-N-methylacetamide], for which, in test [1], the concentration for half-maximal inhibition (IC50) is 100 to 1000 nM and the inhibition at 1 µM was no less than 75%. In test [2], the IC50 was 1000 to 10000 nM and the inhibition at 1 µM is no less than 75%.
As to `CC(=O)N(C)c1cnn(C(=O)N2CCN(Cc3ccc(C(F)(F)F)cc3N3C4CCC3COC4)CC2)c1` [Example 195, N-(1-(4-(2-(3-oxa-8-azabicyclo[3.2.1]octan-8-yl)-4-(trifluoromethyl)benzyl)piperazine-1-carbonyl)-1H-pyrazol-4-yl)-N-methylacetamide], in test [1], the IC50 was no more than 100 nM and the inhibition at 1 µM was no less than 75%. In test [2], the IC50 lay in the range of 1000 to 10000 nM and the inhibition at 1 µM lay in the range of 0 to 25%.
On to `CC(=O)N(C)c1cnn(C(=O)N2CCN(Cc3ccc(Cl)c(Cl)c3)CC2)c1` [Example 196, N-(1-(4-(3,4-dichlorobenzyl)piperazine-1-carbonyl)-1H-pyrazol-4-yl)-N-methylacetamide], for which the inhibition at 1 µM in test [1] and in test [2] was no less than 75% each time. In addition, the IC50 in test [2] fell in the range of 100 to 1000 nM.
As to `CC(=O)N(C)c1cnn(C(=O)N2CCN(Cc3ccc(N4CCCC4)cc3)CC2)c1` [Example 197, N-methyl-N-(1-(4-(4-(pyrrolidin-1-yl)benzyl)piperazine-1-carbonyl)-1H-pyrazol-4-yl)acetamide], in test [1], the half-inhibitory concentration (IC50) is 100 to 1000 nM and the inhibition at 1 µM was no less than 75%. For the same compound, in test [2], the IC50 fell in the range of 100 to 1000 nM and the inhibition at 1 µM was no less than 75%.
In the case of `CC(=O)N(C)c1cnn(C(=O)N2CCN(Cc3ccc(C(F)(F)F)cc3)CC2)c1` [Example 198, N-methyl-N-(1-(4-(4-(trifluoromethyl)benzyl)piperazine-1-carbonyl)-1H-pyrazol-4-yl)acetamide], the inhibition at 1 µM in test [1] is no less than 75%. For the same compound, in test [2], the 50% inhibitory concentration (IC50) lay in the range of 100 to 1000 nM and the inhibition at 1 µM is no less than 75%.
For `CC(=O)N(C)c1cnn(C(=O)N2CCN(Cc3ccc(CN4CCOCC4)cc3)CC2)c1` [Example 199, N-methyl-N-(1-(4-(4-(morpholinomethyl)benzyl)piperazine-1-carbonyl)-1H-pyrazol-4-yl)acetamide], the inhibition at 1 µM in test [1] fell in the range of 50 to 75%; in test [2], 0 to 25%.
Turning to `CC(=O)N(C)c1cnn(C(=O)N2CCN(Cc3ccc(N4CCOCC4)cc3)CC2)c1` [Example 200, N-methyl-N-(1-(4-(4-morpholinobenzyl)piperazine-1-carbonyl)-1H-pyrazol-4-yl)acetamide], the inhibition at 1 µM in test [1] was in the range of 50 to 75%; in test [2] it was 0 to 25%.
As for `CC(=O)N(C)c1cnn(C(=O)N2CCN(Cc3ccc(-c4ccccc4)cc3C)CC2)c1` [Example 201, N-methyl-N-(1-(4-((3-methylbiphenyl-4 yl)methyl)piperazine-1-carbonyl)-1H-pyrazol-4-yl)acetamide], in test [1], the half-maximal inhibitory concentration (IC50) is no more than 100 nM and the inhibition at 1 µM was no less than 75%. Besides, in test [2], the IC50 was no more than 100 nM and the inhibition at 1 µM was no less than 75%.
As to `CC(=O)N(C)c1cnn(C(=O)N2CCN(Cc3cccc(Oc4ccccc4)c3)CC2)c1` [Example 202, N-methyl-N-(1-(4-(3-phenoxybenzyl)piperazine-1-carbonyl)-1H-pyrazol-4-yl)acetamide], in test [1], the IC50 was no more than 100 nM and the inhibition at 1 µM is no less than 75%. In test [2], the IC50 is no more than 100 nM and the inhibition at 1 µM is no less than 75%.
Regarding `CC(=O)N(C)c1cnn(C(=O)N2CCN(Cc3ccc(N4CCOCC4)cc3Cl)CC2)c1` [Example 203, N-(1-(4-(2-chloro-4-morpholinobenzyl)piperazine-1-carbonyl)-1H-pyrazol-4-yl)-N-methylacetamide], in test [1], the IC50 was no more than 100 nM and the inhibition at 1 µM is no less than 75%. In addition, in test [2], the IC50 was in the range of 100 to 1000 nM and the inhibition at 1 µM is no less than 75%.
As for `CC(=O)N(C)c1cnn(C(=O)N2CCN(Cc3ccc(N4CCOCC4)cc3C)CC2)c1` [Example 204, N-methyl-N-(1-(4-(2-methyl-4-morpholinobenzyl)piperazine-1-carbonyl)-1H-pyrazol-4-yl)acetamide], the IC50 in test [1] and in test [2] was 100 to 1000 nM throughout. Moreover, the inhibition at 1 µM in test [1] and in test [2] was no less than 75% each time.
Regarding `CC(=O)N(C)c1cnn(C(=O)N2CCN(Cc3cccc(F)c3)CC2)c1` [Example 205, N-(1-(4-(3-fluorobenzyl)piperazine-1-carbonyl)-1H-pyrazol-4-yl)-N-methylacetamide], in test [1], the IC50 fell in the range of 100 to 1000 nM and the inhibition at 1 µM was no less than 75%. In addition, in test [2], the IC50 lay in the range of 100 to 1000 nM and the inhibition at 1 µM was no less than 75%.
For the compound `CC(=O)N(C)c1cnn(C(=O)N2CCN(Cc3cccc(C)c3)CC2)c1` [Example 206, N-methyl-N-(1-(4-(3-methylbenzyl)piperazine-1-carbonyl)-1H-pyrazol-4-yl)acetamide], in test [1], the IC50 is no more than 100 nM and the inhibition at 1 µM is no less than 75%. Also, in test [2], the IC50 was 100 to 1000 nM and the inhibition at 1 µM was no less than 75%.
As for `COc1cccc(CN2CCN(C(=O)n3cc(N(C)C(C)=O)cn3)CC2)c1` [Example 207, N-(1-(4-(3-methoxybenzyl)piperazine-1-carbonyl)-1H-pyrazol-4-yl)-N-methylacetamide], the inhibition at 1 µM in test [1] and in test [2] was no less than 75% in each case.
`CC(=O)N(C)c1cnn(C(=O)N2CCN(Cc3cccc(N4CCCC4)c3)CC2)c1` [Example 208, N-methyl-N-(1-(4-(3-(pyrrolidin-1-yl)benzyl)piperazine-1-carbonyl)-1H-pyrazol-4-yl)acetamide]: in test [1], the IC50 is no more than 100 nM and the inhibition at 1 µM is no less than 75%. In test [2], the IC50 fell in the range of 100 to 1000 nM and the inhibition at 1 µM is no less than 75%.
For the compound `CC(=O)N(C)c1cnn(C(=O)N2CCN(Cc3cccc(C(F)(F)F)c3)CC2)c1` [Example 209, N-methyl-N-(1-(4-(3-(trifluoromethyl)benzyl)piperazine-1-carbonyl)-1H-pyrazol-4-yl)acetamide], in test [1], the IC50 was no more than 100 nM and the inhibition at 1 µM was no less than 75%. In test [2], the concentration for half-maximal inhibition (IC50) is no more than 100 nM and the inhibition at 1 µM was no less than 75%.
With `CC(=O)N(C)c1cnn(C(=O)N2CCN(Cc3cccc(N4CCOCC4)c3)CC2)c1` [Example 210, N-methyl-N-(1-(4-(3-morpholinobenzyl)piperazine-1-carbonyl)-1H-pyrazol-4-yl)acetamide], the inhibition at 1 µM is no less than 75% in test [1] and 0 to 25% in test [2].
For the compound `CC(=O)N(C)c1cnn(C(=O)N2CCN(Cc3ccccc3F)CC2)c1` [Example 211, N-(1-(4-(2-fluorobenzyl)piperazine-1-carbonyl)-1H-pyrazol-4-yl)-N-methylacetamide], the inhibition at 1 µM in test [1] and in test [2] was no less than 75% in each case.
In the case of `CC(=O)N(C)c1cnn(C(=O)N2CCN(Cc3ccccc3C)CC2)c1` [Example 212, N-methyl-N-(1-(4-(2-methylbenzyl)piperazine-1-carbonyl)-1H-pyrazol-4-yl)acetamide], in test [1], the IC50 was in the range of 100 to 1000 nM and the inhibition at 1 µM is no less than 75%. Further, in test [2], the half-inhibitory concentration (IC50) fell in the range of 100 to 1000 nM and the inhibition at 1 µM is no less than 75%.
`COc1ccccc1CN1CCN(C(=O)n2cc(N(C)C(C)=O)cn2)CC1` [Example 213, N-(1-(4-(2-methoxybenzyl)piperazine-1-carbonyl)-1H-pyrazol-4-yl)-N-methylacetamide]: the inhibition at 1 µM in test [1] was no less than 75%; in test [2], 0 to 25%.
Consider `CC(=O)N(C)c1cnn(C(=O)N2CCN(Cc3ccccc3C(F)(F)F)CC2)c1` [Example 214, N-methyl-N-(1-(4-(2-(trifluoromethyl)benzyl)piperazine-1-carbonyl)-1H-pyrazol-4-yl)acetamide], for which the half-maximal inhibitory concentration (IC50) in test [1] and in test [2] was no more than 100 nM in each case. In addition, the inhibition at 1 µM in test [1] and in test [2] was no less than 75% each time.
`CC(=O)N(C)c1cnn(C(=O)N2CCN(Cc3ccccc3N3CCCC3)CC2)c1` [Example 215, N-methyl-N-(1-(4-(2-(pyrrolidin-1-yl)benzyl)piperazine-1-carbonyl)-1H-pyrazol-4-yl)acetamide]: the inhibition at 1 µM in test [1] was no less than 75%; in test [2], 25 to 50%.
In the case of `CC(=O)N(C)c1cnn(C(=O)N2CCN(Cc3ccccc3N3CCOCC3)CC2)c1` [Example 216, N-methyl-N-(1-(4-(2-morpholinobenzyl)piperazine-1-carbonyl)-1H-pyrazol-4-yl)acetamide], the inhibition at 1 µM in test [1] was no less than 75%; in test [2] it was 0 to 25%.
